Measured values published in ChEMBL document CHEMBL5550184, “Structure-activity relationships of middle-size cyclic peptides, KRAS inhibitors derived from an mRNA display” (Bioorg Med Chem, 2024).
Starred links: 1 amine or outer side, 2 acyl side, 3 side chain; linkers in the order of their positions; H or OH if unused. Positions of bridges follow the written chain, without caps; N, C: chain ends. Non-standard residues stand in square brackets, D forms with d. Residues, ends and D or L forms follow the SMILES beside them. *: point of attachment. hPhe(3-Cl-4-CF3) = N[C@@H](CCc1ccc(C(F)(F)F)c(Cl)c1)C(=O)O; X2 = CN([C@@H](CC(=O)[*:2])C(=O)n1cccc1)[*:1]; NMePhe(4-Cl) = CN[C@@H](Cc1ccc(Cl)cc1)C(=O)O; Phe(3-Cl) = N[C@@H](Cc1cccc(Cl)c1)C(=O)O; NMeGly(cPent) = CN[C@H](C(=O)O)C1CCCC1; NMeGly(cBu) = CN[C@H](C(=O)O)C1CCC1; NMeCha = CN[C@@H](CC1CCCCC1)C(=O)O; NMeGly(cPr) = CN[C@H](C(=O)O)C1CC1; NEtLeu = CCN[C@@H](CC(C)C)C(=O)O; NMeChg = CN[C@H](C(=O)O)C1CCCCC1; NMeF = CN[C@@H](Cc1ccccc1)C(=O)O; NMeI = CC[C@H](C)[C@H](NC)C(=O)O; NMeD = CN[C@@H](CC(=O)O)C(=O)O; NMeL = CN[C@@H](CC(C)C)C(=O)O; NMeV = CN[C@H](C(=O)O)C(C)C; Azetidin(1-yl) = C1CN(*)C1; NMeA = CN[C@@H](C)C(=O)O; Piperidide = C1CCN(*)CC1; Ac5c = NC1(C(=O)O)CCCC1; Aze = O=C(O)[C@@H]1CCN1; Sar = CNCC(=O)O

Experiments:
[1] = Inhibition of biotin-tagged KRAS G12D mutant (unknown origin) to recombinant His-tagged SOS1 (unknown origin) protein-protein interaction incubated for 120 mins by AlphaLISA method; set-up: species or system Homo sapiens
GTPase KRas = GTPase KRas (Homo sapiens, UniProt P01116, G12D); test: Binding affinity to biotinylated KRAS G12D mutant (unknown origin) incubated for 120 mins by SPR analysis
Chain of GTPase KRas (P01116 whole entry G12D): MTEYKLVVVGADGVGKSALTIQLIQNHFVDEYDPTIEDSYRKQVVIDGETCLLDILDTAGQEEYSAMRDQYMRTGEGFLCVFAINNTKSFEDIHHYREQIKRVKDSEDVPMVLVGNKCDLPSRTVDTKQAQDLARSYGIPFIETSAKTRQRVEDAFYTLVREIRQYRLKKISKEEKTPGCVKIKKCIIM

ASPC1 = test: Cytotoxicity against human AsPC1 cells assessed as reduction in cell viability incubated for 7 days by CellTiterGlo Luminescent Cell Viability Assay; type: functional, cell-based; details: ASPC1, 168 h
[2] = Apparent permeability in human Caco-2 cells incubated for 180 mins by LC-MS/MS method; type: ADME, cell-based
[3] = tested on: GTPase KRas (Homo sapiens), P01116 [G12D]; test: Binding affinity to biotinylated KRAS G12D mutant (unknown origin) assessed as Kon incubated for 120 mins by SPR analysis
Chain of GTPase KRas (Homo sapiens), P01116 [G12D] (P01116 whole entry G12D, looked up): as the sequence (P01116 whole entry G12D) above

[4] = tested on: GTPase KRas (Homo sapiens), P01116 [G12D]; test: Binding affinity to biotinylated KRAS G12D mutant (unknown origin) assessed as Koff incubated for 120 mins by SPR analysis

Structure (SMILES): CC[C@H](C)[C@@H]1NC(=O)[C@H](CC(C)C)N(CC)C(=O)C[C@@H](C(=O)N2CCCCC2)N(C)C(=O)[C@H](C2CCCCC2)N(C)C(=O)C2(CCCC2)NC(=O)[C@@H]2CCCN2C(=O)[C@H](CCc2ccc(C(F)(F)F)c(Cl)c2)NC(=O)CN(C)C(=O)[C@H](CC2CCCCC2)N(C)C(=O)CN(C)C(=O)CN(C)C1=O ([NEtLeu]I[Sar][Sar][NMeCha][Sar][hPhe(3-Cl-4-CF3)]P[Ac5c][NMeChg][NMeD]-Piperidide; lactam N-11)
- IC50 [1]: < 2 nM
- Kd (GTPase KRas): 1.1 nM
- IC50 (ASPC1): 73 nM
- Papp at 3 h [2]: 0.29 ×10⁻⁶ cm/s
- K [3]: 2.1 10^5/Ms
- K [4]: 2.3 10^-4/s

Structure (SMILES): CC[C@H](C)[C@@H]1NC(=O)[C@H](C)N(C)C(=O)C[C@@H](C(=O)N2CCCCC2)N(C)C(=O)[C@H](C2CCCCC2)N(C)C(=O)C2(CCCC2)NC(=O)[C@@H]2CCCN2C(=O)[C@H](CCc2ccc(C(F)(F)F)c(Cl)c2)NC(=O)CN(C)C(=O)[C@H](CC2CCCCC2)N(C)C(=O)CN(C)C(=O)CN(C)C1=O ([NMeA]I[Sar][Sar][NMeCha][Sar][hPhe(3-Cl-4-CF3)]P[Ac5c][NMeChg][NMeD]-Piperidide; lactam N-11)
- IC50 [1]: < 2 nM
- Kd (GTPase KRas): 0.14 nM
- IC50 (ASPC1): 91 nM
- Papp at 3 h [2]: 0.56 ×10⁻⁶ cm/s
- K [3]: 1.2 10^6/Ms
- K [4]: 1.7 10^-4/s

Structure (SMILES): CC[C@H](C)[C@@H]1NC(=O)[C@H](CC(C)C)N(C)C(=O)C[C@@H](C(=O)N2CCCCC2)N(C)C(=O)[C@H](C)N(C)C(=O)C2(CCCC2)NC(=O)[C@@H]2CCCN2C(=O)[C@H](CCc2ccc(C(F)(F)F)c(Cl)c2)NC(=O)CN(C)C(=O)[C@H](CC2CCCCC2)N(C)C(=O)[C@@H]2CCN2C(=O)[C@H](C)N(C)C1=O ([NMeL]I[NMeA][Aze][NMeCha][Sar][hPhe(3-Cl-4-CF3)]P[Ac5c][NMeA][NMeD]-Piperidide; lactam N-11)
- IC50 [1]: > 1000 nM
- IC50 (ASPC1): 5200 nM
- Papp at 3 h [2]: 0.97 ×10⁻⁶ cm/s

Structure (SMILES): CC[C@H](C)[C@@H]1NC(=O)[C@H](CC(C)C)N(C)C(=O)C[C@@H](C(=O)N2CCCCC2)N(C)C(=O)[C@H](C2CCCCC2)N(C)C(=O)C2(CCCC2)NC(=O)[C@@H]2CCCN2C(=O)[C@H](CCc2ccc(C(F)(F)F)c(Cl)c2)NC(=O)CN(C)C(=O)[C@H](CC2CCCCC2)N(C)C(=O)[C@@H]2CCN2C(=O)[C@H](C)N(C)C1=O ([NMeL]I[NMeA][Aze][NMeCha][Sar][hPhe(3-Cl-4-CF3)]P[Ac5c][NMeChg][NMeD]-Piperidide; lactam N-11)
- IC50 [1]: < 2 nM
- IC50 (ASPC1): 140 nM
- Papp at 3 h [2]: 0.97 ×10⁻⁶ cm/s

Structure (SMILES): CC[C@H](C)[C@@H]1NC(=O)[C@H](CC(C)C)N(C)C(=O)C[C@@H](C(=O)N2CCCCC2)N(C)C(=O)[C@H](C2CCC2)N(C)C(=O)C2(CCCC2)NC(=O)[C@@H]2CCCN2C(=O)[C@H](CCc2ccc(C(F)(F)F)c(Cl)c2)NC(=O)CN(C)C(=O)[C@H](CC2CCCCC2)N(C)C(=O)[C@@H]2CCN2C(=O)[C@H](C)N(C)C1=O ([NMeL]I[NMeA][Aze][NMeCha][Sar][hPhe(3-Cl-4-CF3)]P[Ac5c][NMeGly(cBu)][NMeD]-Piperidide; lactam N-11)
- IC50 [1]: 2.5 nM
- IC50 (ASPC1): 170 nM
- Papp at 3 h [2]: 0.91 ×10⁻⁶ cm/s

Structure (SMILES): CC[C@H](C)[C@@H]1NC(=O)[C@H](CC(C)C)N(C)C(=O)C[C@@H](C(=O)N(C)C)N(C)C(=O)[C@H](C2CCCC2)N(C)C(=O)C2(CCCC2)NC(=O)[C@@H]2CCCN2C(=O)[C@H](CCc2ccc(C(F)(F)F)c(Cl)c2)NC(=O)CN(C)C(=O)[C@H](CC2CCCCC2)N(C)C(=O)[C@@H]2CCN2C(=O)[C@H](C)N(C)C1=O ([NMeL]I[NMeA][Aze][NMeCha][Sar][hPhe(3-Cl-4-CF3)]P[Ac5c][NMeGly(cPent)][NMeD]-NMe2; lactam N-11)
- IC50 [1]: < 2 nM
- Kd (GTPase KRas): 0.16 nM
- IC50 (ASPC1): 5.5 nM
- Papp at 3 h [2]: 2.61 ×10⁻⁶ cm/s

Structure (SMILES): CC[C@H](C)[C@@H]1NC(=O)[C@H](CC(C)C)N(C)C(=O)C[C@@H](C(=O)N2CCC2)N(C)C(=O)[C@H](C2CCCC2)N(C)C(=O)C2(CCCC2)NC(=O)[C@@H]2CCCN2C(=O)[C@H](CCc2ccc(C(F)(F)F)c(Cl)c2)NC(=O)CN(C)C(=O)[C@H](CC2CCCCC2)N(C)C(=O)[C@@H]2CCN2C(=O)[C@H](C)N(C)C1=O ([NMeL]I[NMeA][Aze][NMeCha][Sar][hPhe(3-Cl-4-CF3)]P[Ac5c][NMeGly(cPent)][NMeD]-{Azetidin(1-yl)}; lactam N-11)
- IC50 [1]: < 2 nM
- Kd (GTPase KRas): 0.19 nM
- IC50 (ASPC1): 13 nM
- Papp at 3 h [2]: 2.66 ×10⁻⁶ cm/s

Structure (SMILES): CC[C@H](C)[C@@H]1NC(=O)[C@H](CC(C)C)N(C)C(=O)C[C@@H](C(=O)N2CCCCC2)N(C)C(=O)[C@H](C2CC2)N(C)C(=O)C2(CCCC2)NC(=O)[C@@H]2CCCN2C(=O)[C@H](CCc2ccc(C(F)(F)F)c(Cl)c2)NC(=O)CN(C)C(=O)[C@H](CC2CCCCC2)N(C)C(=O)[C@@H]2CCN2C(=O)[C@H](C)N(C)C1=O ([NMeL]I[NMeA][Aze][NMeCha][Sar][hPhe(3-Cl-4-CF3)]P[Ac5c][NMeGly(cPr)][NMeD]-Piperidide; lactam N-11)
- IC50 [1]: 50 nM
- IC50 (ASPC1): 1100 nM
- Papp at 3 h [2]: 1.36 ×10⁻⁶ cm/s

Structure (SMILES): CC[C@H](C)[C@@H]1NC(=O)[C@H](CC(C)C)N(C)C(=O)C[C@@H](C(=O)N2CCCCC2)N(C)C(=O)[C@H]([C@@H](C)CC)N(C)C(=O)C2(CCCC2)NC(=O)[C@@H]2CCCN2C(=O)[C@H](CCc2ccc(C(F)(F)F)c(Cl)c2)NC(=O)CN(C)C(=O)[C@H](CC2CCCCC2)N(C)C(=O)[C@@H]2CCN2C(=O)[C@H](C)N(C)C1=O ([NMeL]I[NMeA][Aze][NMeCha][Sar][hPhe(3-Cl-4-CF3)]P[Ac5c][NMeI][NMeD]-Piperidide; lactam N-11)
- IC50 [1]: 2.8 nM
- IC50 (ASPC1): 48 nM
- Papp at 3 h [2]: 0.75 ×10⁻⁶ cm/s

Structure (SMILES): CC[C@H](C)[C@@H]1NC(=O)[C@H](CC(C)C)N(C)C(=O)C[C@@H](C(=O)N2CCCCC2)N(C)C(=O)[C@H](C(C)C)N(C)C(=O)C2(CCCC2)NC(=O)[C@@H]2CCCN2C(=O)[C@H](CCc2ccc(C(F)(F)F)c(Cl)c2)NC(=O)CN(C)C(=O)[C@H](CC2CCCCC2)N(C)C(=O)[C@@H]2CCN2C(=O)[C@H](C)N(C)C1=O ([NMeL]I[NMeA][Aze][NMeCha][Sar][hPhe(3-Cl-4-CF3)]P[Ac5c][NMeV][NMeD]-Piperidide; lactam N-11)
- IC50 [1]: 4.1 nM
- IC50 (ASPC1): 110 nM
- Papp at 3 h [2]: 1.3 ×10⁻⁶ cm/s

Structure (SMILES): CC[C@H](C)[C@@H]1NC(=O)[C@H](CC(C)C)N(C)C(=O)C[C@@H](C(=O)N2CCCCC2)N(C)C(=O)[C@H](C(C)C)N(C)C(=O)C2(CCCC2)NC(=O)[C@@H]2CCCN2C(=O)[C@H](CCc2ccc(C(F)(F)F)c(Cl)c2)NC(=O)CN(C)C(=O)[C@H](CC2CCCCC2)N(C)C(=O)CN(C)C(=O)CN(C)C1=O ([NMeL]I[Sar][Sar][NMeCha][Sar][hPhe(3-Cl-4-CF3)]P[Ac5c][NMeV][NMeD]-Piperidide; lactam N-11)
- IC50 [1]: 6 nM
- IC50 (ASPC1): 120 nM
- Papp at 3 h [2]: 1.12 ×10⁻⁶ cm/s

Structure (SMILES): CC[C@H](C)[C@@H]1NC(=O)[C@H](C)N(C)C(=O)C[C@@H](C(=O)n2cccc2)N(C)C(=O)[C@H](CC(C)C)N(C)C(=O)[C@H](Cc2ccccc2)N(C)C(=O)[C@H](Cc2ccccc2)NC(=O)[C@H](Cc2cccc(Cl)c2)NC(=O)CN(C)C(=O)[C@H](Cc2ccc(Cl)cc2)N(C)C(=O)CN(C)C(=O)CN(C)C1=O (cyclo(F[NMeF][NMeL][X2][NMeA]I[Sar][Sar][NMePhe(4-Cl)][Sar][Phe(3-Cl)]))
- IC50 [1]: 36 nM
- IC50 (ASPC1): > 20000 nM
- Papp at 3 h [2]: 0.87 ×10⁻⁶ cm/s
